Data reported in patent US10519159B2, “Antiviral aliphatic ester prodrugs of tenofovir” (Merck Sharp & Dohme Corp., priority 2016, dated 2019).
pIC50: −log10 of the molar value. Like-named read-outs stand apart in the source and are kept apart here.

How the values were obtained:
HIV-1 (H9/IIIB strain) = test: Multiple round HIV-1 infection assay (Viking assay) in MT4-GFP cells; format: cell-based; conditions: Table 1, MT4-GFP cells infected with HIV-1 H9/IIIB
Method: Assessing Antiviral Potency in a Multiple Round HIV-1 Infection Assay (Viking Assay)
The antiviral activity of the tenofovir prodrugs of the Examples herein was assessed in an assay that measures the rate of replication of HIV in cell culture, termed the Viking assay (Viral KINetics in Green cells) and performed as follows. HIV-1 replication was monitored using MT4-gag-GFP clone D3 (hereafter designated MT4-GFP), which are MT-4 cells modified to harbor a GFP reporter gene, the expression of which is dependent on the HIV-1 expressed proteins tat and rev. Productive infection of an MT4-GFP cell with HIV-1 results in GFP expression approximately 24 h post-infection. MT4-GFP cells were maintained at 37° C./5% CO2/90% relative humidity in RPMI 1640 supplemented with 10% fetal bovine serum, 100 U/ml penicillin/streptomycin, and 400 μg/ml G418 to maintain the reporter gene. For infections, MT4-GFP cells were placed in the same medium lacking G418 and infected overnight with HIV-1 (H9/IIIB strain) virus at an approximate multiplicity of infection of 0.01 in the same incubation conditions. Cells were then washed and re-suspended in either RPMI 1640 supplemented with 10% or 50% normal human serum (NHS) at 1.6×10^5 cells/mL (10% NHS or 50% NHS, respectively). Compound plates were prepared by dispensing compounds dissolved in DMSO into wells of 384 well poly-D-lysine-coated plates (0.2 μl/well) using an ECHO acoustic dispenser. Each compound was tested in a 10-point serial 3-fold dilution (typical final concentrations: 8.4 μM-0.42 nM). Controls included no inhibitor (DMSO only) and a combination of three antiviral agents (efavirenz, indinavir, an in-house integrase strand transfer inhibitor at final concentrations of 4 μM each). Cells were added (50 μL/well) to compound plates and the infected cells were maintained at 37° C./5% CO2/90% relative humidity.
Infected cells were quantified at two time points, ˜48 h and ˜72 h post-infection, by counting the number of green cells in each well using an Acumen eX3 scanner. The increase in the number of green cells over ˜24 h period gives the reproductive ratio, R0, which is typically 5-15 and has been shown experimentally to be in logarithmic phase (data not shown). Inhibition of R0 is calculated for each well, and IC50s determined by non-linear 4-parameter curve fitting.

[1] = Prodrug stability assay in bio-relevant media (FaSSIF with pancreatin), GI tract stability; format: in vitro ADME; conditions: Table 1; % parent: HPLC peak area of prodrug at 5 h / 0 h, 0.5 mg/mL pancreatin in FaSSIF, 37° C.
Method: Prodrug Stability Assay in Bio-Relevant Media
The following assay was employed to evaluate the stability of the prodrugs in simulated gastrointestinal tract conditions. Preparation of fasted state simulated intestinal fluid (FaSSIF) using Phares SIF Powder was carried out according to protocols from Phare Drug Delivery AG (Baselland, Switzerland). For sample preparation, 10 μL stock solutions (10 mM) of prodrug substance in DMSO was added to 990 μL of 0.5 mg/mL Pancreatin solution (Fisher CAS #8049-47-6) in FaSSIF. Two samples were prepared for each compound. If the sample was a clear solution, it was directly analyzed by HPLC. If the sample was not clear, the sample was […], maintained at 37° C. and observed 5 h later. If the sample was clear, HPLC analysis was directly performed. If the sample was still not clear, the sample was diluted with 100% ACN and assayed by HPLC. All the samples were vortexed for 3 min and observed before injection. For the diluted samples, the area is multiplied by a dilution factor when the data is analyzed. The analysis was carried out with an Agilent 1100 series HPLC with autosampler. The column was a Poroshell 120 EC-C18, 4.6×50 mm, 2.7 μm. The flow rate was 1.8 mL/min, and the injection volume was 5 or 10 μL. UV detection was in the range 210-400 nm. The mobile phase consisted of solvent A (water plus 10 mM tetrabutylammonium bromide) and solvent B (acetonitrile) with a gradient of: 90% solvent A at 0 min, changing to 95% solvent B over 6 min, maintaining for 1.5 min, then reverting to 90% solvent A over 1.6 min. The HPLC peak area of the prodrug at 5 h was divided by the HPLC peak area of the prodrug at 0 h, to generate the % claimed parent ratio, which is summarized in Table 1 for gastrointestinal (GI) Tract stability.

[2] = 10% normal human serum, read-out: Viking, IC50 (10% NHS)
[3] = 50% normal human serum, read-out: Viking, IC50 (50% NHS)
[4] = read-out: Viking, IC50 (10% NHS), 10% normal human serum
[5] = read-out: Viking, IC50 (50% NHS), 50% normal human serum

| Compound | pIC50 (HIV-1 (H9/IIIB strain); [2]) | pIC50 (HIV-1 (H9/IIIB strain); [3]) | GI Tract stability [1] | pIC50 (HIV-1 (H9/IIIB strain); [4]) | pIC50 (HIV-1 (H9/IIIB strain); [5]) |
| --- | --- | --- | --- | --- | --- |
| CC(C)OC(=O)C[C@H](C)OP(=O)(CO[C@H](C)Cn1cnc2c(N)ncnc21)NC(C)(C)C(=O)OC(C)C (single isomer, unassigned) [Example 10A] | 7.94 | 7.14 | 99.75% |  |  |
| CCCOC(=O)C(C)(C)NP(=O)(CO[C@H](C)Cn1cnc2c(N)ncnc21)OCCc1cccc(C(=O)OC(C)C)c1 (single isomer, unassigned) [Example 11A] | 8.66 | 8.19 | 88.58% |  |  |
| CCCOC(=O)C(C)(C)NP(=O)(CO[C@H](C)Cn1cnc2c(N)ncnc21)SCCC(=O)OC(C)C (single isomer, unassigned) [Example 12A] |  |  | 96.69% | 7.12 | 6.49 |
| CCCOC(=O)C(C)(C)NP(=O)(CO[C@H](C)Cn1cnc2c(N)ncnc21)SCCC(=O)OC(C)C (single isomer, unassigned) [Example 12B] |  |  | 54.83% | 7.89 | 7.41 |
| CCCSC(=O)C(C)(C)NP(=O)(CO[C@H](C)Cn1cnc2c(N)ncnc21)OCCC(=O)OC(C)C (single isomer, unassigned) [Example 13A] | 8.29 | 7.66 | 76.99% |  |  |
| CCCOC(=O)C(C)(C)NP(=O)(CO[C@H](C)Cn1cnc2c(N)ncnc21)OCc1cccc(C(=O)OC(C)C)c1 (single isomer, unassigned) [Example 14A] | 8.77 | 8.12 | 96.71% |  |  |
